Patent publication US20250250629A1, “NUCLEOTIDE CYCLIC CLEAVABLE MOIETIES AND USES THEREOF” (Singular Genomics Systems, Inc., priority 2022, published 2025)

Test: Storage stability of reversibly terminated nucleotides (percentage of deblocked nucleotides, in-house assay)
Assay type: physicochemical
Details: for percentage of deblocked nucleotides (3′-OH, loss of reversible terminator) over time: stored at 20° C. over 21 days (vs. 4° C.)
Method: FIGS. 1A-1B depict storage stability studies of nucleotides stored at both 4° C. and 20° C. over a period of 21 days. The stability of the reversibly terminated nucleotide can be measured by the % of nucleotides that lose the reversible terminator moiety (e.g., via spontaneous fragmentation or reduction to yield a 3′-OH). […] (black) and 20° C. (light). […] (black) and 20° C. (light).
The stability of a reversibly terminated nucleotide can be measured by determining the loss of the reversible terminator over time. FIGS. 1A-1B depict the storage stability of nucleotides having a linear disulfide RT and cyclic disulfide RT stored at both 4° C. and 20° C. over a period of 21 days. The linear disulfide RT tested has the structure:
A buffer containing 200 nM of each nucleotide was stored at 4° C. and 20° C. over a period of 21 days and the percentage of deblocked nucleotides (i.e., those having loss of 3′-OH reversible terminator) was determined using an in-house assay. The stability of the reversibly terminated nucleotide can be measured by the % of nucleotides that lose the reversible terminator moiety (e.g., via spontaneous fragmentation or reduction to yield a 3′-OH). […] (black) and 20° C. (light). […] (black) and 20° C. (light). As observed in FIG. 1A, the average percentage of reversible terminator loss is about 0.13%+/−0.05% when stored at 4° C., and is considered relatively stable when stored under these conditions. […] Subsequent storage stability studies indicate the nucleotides are stable, wherein the average percentage of reversible terminator loss is less than about 0.15%, beyond 120 days at both 20° C. and 4° C.

[1] = buffer containing 200 nM nucleotide

average percentage of reversible terminator loss (subsequent storage stability studies, beyond 120 days at 4° C.)	average percentage of reversible terminator loss (subsequent storage stability studies, beyond 120 days at 20° C.)	average percentage of reversible terminator loss (buffer containing 200 nM nucleotide, stored at 4° C. over 21 days)	SMILES	percentage of deblocked nucleotides (3′-OH, loss of reversible terminator) over time [1]
less than 0.15%	less than 0.15%		Cc1cn(C2CC(OC3CCCSS3)C(COP(=O)(O)OP(=O)(O)OP(=O)(O)O)O2)c(=O)[nH]c1=O (centres unmarked) [cyclic disulfide RT]	less prone to spontaneously losing the 3′ reversible terminator
		about 0.13%+/−0.05	CSSC(C)OC1CC(n2cc(C)c(=O)[nH]c2=O)OC1COP(=O)(O)OP(=O)(O)OP(=O)(O)O (centres unmarked) [linear disulfide RT, reference compound]	grows over time
